Source: PubChem BioAssay (NCI)
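Growth conditions: 96-well plates. Treatment: test compound, 48 hours, 5 concentrations. Analysis: linear interpolation between bracketing concentrations; unreached endpoints set to highest concentration. Here, GI50 denotes the concentration required for 50% inhibition of growth. TGI is the concentration that stops growth completely.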

Columns and labels:
Experiment in all cases: NCI tumour cell line growth inhibition, 48 h
DMS 114 small cell lung = test system: DMS 114 small cell lung
DMS 273 small cell lung = test system: DMS 273 small cell lung
DLD-1 colon = test system: DLD-1 colon
OVCAR-8 ovarian = test system: OVCAR-8 ovarian
HCT-15 colon = test system: HCT-15 colon
M19-MEL melanoma = test system: M19-MEL melanoma
SNB-78 CNS = test system: SNB-78 CNS
HOP-18 NSCLC = test system: HOP-18 NSCLC
HL-60(TB) leukemia = test system: HL-60(TB) leukemia
MDA-MB-231 breast = test system: MDA-MB-231 breast
K-562 leukemia = test system: K-562 leukemia
MDA-N = test system: MDA-N

## N#C[S-].[La+3].c1ccc(-c2ccccn2)nc1.c1ccc(-c2ccccn2)nc1.c1ccc(-c2ccccn2)nc1
DMS 114 small cell lung
  GI50: 26.1 µM
  TGI: 97.2 µM
DMS 273 small cell lung
  GI50: 19.1 µM
  TGI: 88.5 µM
DLD-1 colon
  GI50: 17.2 µM
  TGI: > 100 µM
OVCAR-8 ovarian
  GI50: 25.9 µM
  TGI: > 100 µM
HCT-15 colon
  GI50: 7.07 µM
  TGI: > 100 µM
M19-MEL melanoma
  GI50: 38 µM
  TGI: > 100 µM
SNB-78 CNS
  GI50: 59.4 µM
  TGI: > 100 µM
HOP-18 NSCLC
  GI50: 27.1 µM
  TGI: > 100 µM

## O=c1cc(-c2cccc(OC(F)(F)F)c2)[nH]c2ccc(N3CCCC3)cc12
HL-60(TB) leukemia
  TGI: < 0.0001 µM

## Clc1cc(N/N=C(\c2ccccc2)c2ccccn2)ncn1
MDA-MB-231 breast
  TGI: 0.0669 µM
K-562 leukemia
  TGI: > 100 µM
MDA-N
  TGI: > 100 µM
